Source: patent US10675268B2, “Somatostatin receptor subtype 4 (SSTR4) agonists” (Centrexion Therapeutics Corporation, priority 2013, dated 2020)

test: Metabolic stability in pooled human liver microsomes (half-life); format: in vitro ADME; settings: 37° C., 1 μM test compound
Procedure: The metabolic stability of the compounds according to the invention may be investigated as follows:
The metabolic degradation of the test compound is assayed at 37° C. with pooled human liver microsomes. The final incubation volume of 100 μl per time point contains TRIS buffer pH 7.6 at room temperature (0.1 M), magnesium chloride (5 mM), microsomal protein (1 mg/mL) and the test compound at a final concentration of 1 μM. Following a short preincubation period at 37° C., the reactions are initiated by addition of beta-nicotinamide adenine dinucleotide phosphate, reduced form (NADPH, 1 mM), and terminated by transferring an aliquot into solvent after different time points. After centrifugation (10000 g, 5 min), an aliquot of the supernatant is assayed by LC-MS/MS for the amount of parent compound. The half-life is determined by the slope of the semi-logarithmic plot of the concentration-time profile.

Half-life t1/2, >2.17 h:
CCc1ccccc1OCC(C)(C)NC(=O)[C@H]1[C@@H]2CNC[C@@H]21.Cl [Example 39]
Cc1cc(C2CC2)ccc1OCC(C)(C)NC(=O)[C@H]1[C@@H]2CNC[C@@H]21 [Example 65]
Cc1cccc2c(C(C)(C)NC(=O)[C@H]3[C@@H]4CNC[C@@H]43)n[nH]c12 [Example 93]
CC(C)(NC(=O)[C@H]1[C@@H]2CNC[C@@H]21)c1n[nH]c2ccccc12 [Example 94]
CC(C)(NC(=O)[C@H]1[C@@H]2CNC[C@@H]21)c1n[nH]c2c(C(F)(F)F)cccc12 [Example 110]
